Results published in patent publication US20110306639A1, “HYDROCARBYLIDENE NITROHYDROZINECARBOXIMIDAMIDES AND A METHOD FOR MAKING THE SAME, AS WELL AS THEIR USES AS AN INSECTICIDE” (priority 2008, published 2011).
Like-named read-outs stand apart in the source and are kept apart here.

Assays:
myzus persicae = details: in vivo
asparagus caterpillar = details: in vivo

SMILES	mortality(%) myzus persicae (600 μg/mL) (myzus persicae)	mortality(%) Helicoverpa armigera (500 μg/mL) (Helicoverpa armigera; 500 μg/mL, 48 hours)	mortality(%) asparagus caterpillar (500 μg/mL) (asparagus caterpillar)	mortality(%) Helicoverpa armigera (500 μg/mL) (Helicoverpa armigera; in vivo)
CCCCC=NNC(=N[N+](=O)[O-])NCCC [Compound 51]	13.3%	30%	10%	–
CCCCC=NNC(=N[N+](=O)[O-])NCCCC [Compound 52]	81.0%	20%	60%	–
C=CCNC(=N[N+](=O)[O-])NN=CCCCC [Compound 53]	81.0%	40%	80%	–
C#CCNC(=N[N+](=O)[O-])NN=CCCCC [Compound 54]	47.6%	40%	10%	–
CCCCC=NNC(=N[N+](=O)[O-])NCc1ccccc1 [Compound 55]	49.2%	10%	30%	–
CCNC(=N[N+](=O)[O-])NN=Cc1ccc(N(C)C)cc1 [Compound 69]	90.6%	–	80%	30%
C=CCNC(=N[N+](=O)[O-])NN=Cc1ccc(N(C)C)cc1 [Compound 72]	23.6%	–	50%	50%
CCCNC(=N[N+](=O)[O-])NN=Cc1ccccc1OC [Compound 73]	20.2%	50%	70%	–
CCCCNC(=N[N+](=O)[O-])NN=Cc1ccccc1OC [Compound 74]	40.4%	0%	30%	–
COc1ccccc1C=NNC(=N[N+](=O)[O-])NCc1ccccc1 [Compound 75]	92.8%	30%	90%	–
C=CCNC(=N[N+](=O)[O-])NN=Cc1ccccc1OC [Compound 76]	3.4%	40%	80%	–
C#CCNC(=N[N+](=O)[O-])NN=Cc1ccccc1OC [Compound 77]	4.2%	30%	50%	–
CCCNC(=N[N+](=O)[O-])NN=Cc1ccccc1Cl [Compound 90]	41.2%	–	50%	10%
CCCCNC(=N[N+](=O)[O-])NN=Cc1ccccc1Cl [Compound 91]	1.2%	–	80%	0%
O=[N+]([O-])N=C(NCc1ccccc1)NN=Cc1ccccc1Cl [Compound 92]	45.8%	–	70%	50%
C#CCNC(=N[N+](=O)[O-])NN=Cc1ccccc1Cl [Compound 94]	31.2%	–	60%	50%
CCOc1ccc(C=NNC(=N[N+](=O)[O-])NC)cc1OC [Compound 95]	58.0%	–	80%	40%
CCCNC(=N[N+](=O)[O-])NN=Cc1ccc(OCC)c(OC)c1 [Compound 96]	73.4%	–	50%	20%
CCCCNC(=N[N+](=O)[O-])NN=Cc1ccc(OCC)c(OC)c1 [Compound 97]	35.8%	–	70%	40%
